In patent US7893266B2, “Detection of cancer cells in vitro using sigma-2 receptor ligands as radiotracers” (Washington University, priority 2003, dated 2011):
Like-named read-outs stand apart in the source and are kept apart here.

Columns and labels:
[1] = Biodistribution in EMT-6 BALB/C mice; type: in vivo; settings: Balb/c, mouse, intravenous
Experimental: (§1) As used herein, the term “tumor:background ratio” (i.e., tumor:fat ratio, tumor:muscle ratio, tumor:lung ratio, tumor:blood ratio) refers to the % injected dose/g tissue of the radiotracer in the tumor divided by the % injected dose/g […] in the background tissue (i.e., fat, muscle, lung, blood).
(§2) B. Biodistribution Studies of ^11C analogs in Tumor-Bearing Mice. Biodistribution studies were conducted in mature Balb/c mice that were implanted with EMT-6 mammary tumors identified herein as EMT-6 BALB/C mice to create laboratory tumor-bearing mice. The mice were implanted in the scapular region seven days prior to the study. Animals were injected with 100-150 μCi of the ^11C-labeled radiotracer and the animals were sacrificed at 5, 30, and 60 min post-i.v. injection of the radiotracer.
(§3) A series of biodistribution studies in tumor-bearing mice were also conducted with [^76Br]8, [^76Br]6, [^125I]8i, and [^125I]6i.

EMT-6 mammary tumors = test: Biodistribution in EMT-6 BALB/C mice; type: in vivo
Experimental: as §1, §2, §3

[2] = target: T1, σ2 receptors in the breast tumors (Mus musculus, UniProt Q8VD00); test: In vivo blocking studies with YUN 143 in tumor-bearing mice; settings: blocking agent YUN 143 (1 mg/kg, i.v.); time point of highest % I.D./gram tumor
T1 construct: mature Balb/c mice that were implanted with EMT-6 mammary tumors; from tissue; host or cells: EMT-6 mammary tumours in Balb/c mice, in vivo
T1 sequence (Q8VD00 1-176): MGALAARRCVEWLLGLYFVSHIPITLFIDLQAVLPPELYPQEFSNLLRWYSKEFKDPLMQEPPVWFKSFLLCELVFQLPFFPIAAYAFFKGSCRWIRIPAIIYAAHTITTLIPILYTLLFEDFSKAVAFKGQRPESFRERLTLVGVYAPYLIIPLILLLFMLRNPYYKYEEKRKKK
Description: The blocking agent was YUN 143, which has a high affinity for σ1 and σ2 receptors. Animals were sacrificed at the time point displaying the highest % I.D./gram tumor.
The inventors then conducted blocking studies in order to confirm that the radiotracer labeled σ2 receptors in the breast tumors. […] We have previously reported that [^18F]YUN 143 labels σ1 and σ2 receptors in breast tumor xenografts (Mach et al., 2001).

[3] = kidney, read-out: % ID per gram kidney
[4] = liver, read-out: % ID per gram liver

## COc1cc2c(cc1OC)CN(CCCCNC(=O)c1cc([125I])cc(OC)c1OC)CC2 [[^125I]6i]
[1]; [3]
  tissue uptake at 2 h: 2.45 ± 0.25 %ID/g
  tissue uptake at 4 h: 0.63 ± 0.11 %ID/g
[1]; [4]
  tissue uptake at 2 h: 1.91 ± 0.2 %ID/g
  tissue uptake at 4 h: 0.9 ± 0.21 %ID/g
[1]; lung, read-out: % ID per gram lung
  tissue uptake at 4 h: 0.29 ± 0.05 %ID/g
EMT-6 mammary tumors; 5 min
  ratio Tumor:blood: 1.73 ± 0.46
  ratio Tumor:fat: 1.00 ± 0.20
  ratio Tumor:heart: 0.61 ± 0.07
  ratio Tumor:lung: 0.15 ± 0.02
  ratio Tumor:muscle: 0.98 ± 0.13
  % ID per gram blood: 2.37 ± 0.26 % ID per gram
  % ID per gram brain: 1.53 ± 0.14 % ID per gram
  % ID per gram fat: 4.15 ± 0.91 % ID per gram
  % ID per gram heart: 6.55 ± 0.54 % ID per gram
  % ID per gram kidney: 29.51 ± 2.23 % ID per gram
  % ID per gram liver: 13.20 ± 2.04 % ID per gram
  % ID per gram lung: 27.13 ± 1.61 % ID per gram
  % ID per gram muscle: 4.10 ± 0.33 % ID per gram
  % ID per gram tumor: 4.02 ± 0.55 % ID per gram
EMT-6 mammary tumors; 30 min
  ratio Tumor:blood: 2.07 ± 0.32
  ratio Tumor:fat: 2.62 ± 0.27
  ratio Tumor:heart: 2.32 ± 0.18
  ratio Tumor:lung: 0.82 ± 0.09
  ratio Tumor:muscle: 3.94 ± 0.55
  % ID per gram blood: 2.19 ± 0.16 % ID per gram
  % ID per gram brain: 0.39 ± 0.03 % ID per gram
  % ID per gram fat: 1.73 ± 0.20 % ID per gram
  % ID per gram heart: 1.94 ± 0.09 % ID per gram
  % ID per gram kidney: 13.69 ± 0.35 % ID per gram
  % ID per gram liver: 8.77 ± 0.88 % ID per gram
  % ID per gram lung: 5.50 ± 0.62 % ID per gram
  % ID per gram muscle: 1.21 ± 0.17 % ID per gram
  % ID per gram tumor: 4.50 ± 0.43 % ID per gram
EMT-6 mammary tumors; 1 hour
  ratio Tumor:blood: 2.44 ± 0.53
  ratio Tumor:fat: 4.85 ± 0.67
  ratio Tumor:heart: 3.89 ± 0.08
  ratio Tumor:lung: 1.66 ± 0.17
  ratio Tumor:muscle: 4.26 ± 0.74
  % ID per gram blood: 1.52 ± 0.49 % ID per gram
  % ID per gram brain: 0.15 ± 0.03 % ID per gram
  % ID per gram fat: 0.74 ± 0.17 % ID per gram
  % ID per gram heart: 0.91 ± 0.10 % ID per gram
  % ID per gram kidney: 5.94 ± 1.22 % ID per gram
  % ID per gram liver: 4.24 ± 0.60 % ID per gram
  % ID per gram lung: 2.12 ± 0.19 % ID per gram
  % ID per gram muscle: 0.87 ± 0.22 % ID per gram
  % ID per gram tumor: 3.53 ± 0.42 % ID per gram
EMT-6 mammary tumors; 2 hour
  ratio Tumor:blood: 2.83 ± 1.62
  ratio Tumor:fat: 5.86 ± 2.93
  ratio Tumor:heart: 4.85 ± 2.31
  ratio Tumor:lung: 1.99 ± 1.04
  ratio Tumor:muscle: 6.99 ± 4.44
  % ID per gram blood: 0.65 ± 0.07 % ID per gram
  % ID per gram brain: 0.06 ± 0.01 % ID per gram
  % ID per gram fat: 0.33 ± 0.08 % ID per gram
  % ID per gram heart: 0.40 ± 0.05 % ID per gram
  % ID per gram lung: 1.01 ± 0.18 % ID per gram
  % ID per gram muscle: 0.31 ± 0.10 % ID per gram
  % ID per gram tumor: 1.88 ± 0.76 % ID per gram
EMT-6 mammary tumors; 4 hour
  ratio Tumor:blood: 3.11 ± 0.85
  ratio Tumor:fat: 9.59 ± 4.55
  ratio Tumor:heart: 5.91 ± 1.65
  ratio Tumor:lung: 2.83 ± 0.19
  ratio Tumor:muscle: 8.98 ± 3.01
  % ID per gram blood: 0.29 ± 0.11 % ID per gram
  % ID per gram brain: 0.02 ± 0.01 % ID per gram
  % ID per gram fat: 0.10 ± 0.05 % ID per gram
  % ID per gram heart: 0.15 ± 0.04 % ID per gram
  % ID per gram muscle: 0.10 ± 0.04 % ID per gram
  % ID per gram tumor: 0.82 ± 0.09 % ID per gram
[2]
  in vivo blocking study result: consistent with the labeling of σ2 receptors in vivo
